System: intracellular HPV L1 and L2
Test: Immunoblot detection of intracellular L1 and L2
Type: cell-based, HPV16
Details: CHO-K1 cells, HPV-GFP MOI of 50; 500 nM 13-46st, 100 nM BafA1 or both for 24 h
Description: FIG 5 The L2N lipopeptide blocks HPV entry without affecting HPV capsid priming and internalization. (A) Cell binding and uptake of L2N lipopeptide. HeLa cells were incubated with 500 nM FITC-m13-46st peptide for indicated times. Images were captured after three PBS washes. Bar, 25 μm. (B) L2N lipopeptide inhibits HPV-GFP entry. HeLa cells were treated with 500 nM L2N lipopeptide (13-46st) before (pre), during (co), or after (post) HPV-GFP inoculation. Mock, no peptide treatment. GFP intensity was analyzed at 36 hpi. Bar, 200 μm. (C) Peptide addition/withdrawal assays were performed as indicated in the schematic diagram (top). CHO-K1 cells were incubated with HPV-Lucia at 4°C for 2 h. […] Lucia activity was analyzed at 40 hpi. […] Intracellular L1 and L2 levels were determined by immunoblotting with MD2H11 and JWW-1, respectively. […] HPV L2 JWW-1 epitope exposure was analyzed by immunostaining with JWW-1 antibody (in red). […]
FIG 6 The L2N lipopeptide blocks TGN trafficking of HPV, leading to rapid virion degradation. […] Localization of the TGN (green) was analyzed by immunostaining with anti-P230 antibody. […] The ratios of EdU puncta in the nucleus (B) or in the TGN (C) were quantified based on representative images under each condition. P values were determined by ordinary one-way ANOVA with Dunnett’s multiple-comparison test (n = 10) ****, P < 0.0001. […]

CO/C1=C\C(C)=C\[C@@H](C)[C@@H](O)[C@@H](C)C/C(C)=C/C=C/[C@H](OC)[C@@H]([C@@H](C)[C@@H](O)[C@H](C)[C@@]2(O)C[C@@H](O)[C@H](C)[C@@H](C(C)C)O2)OC1=O [BafA1, bafilomycin A1]
intracellular full-length L1 and L2 levels: prevented L1 and L2 degradation
